# Values joined by “and” are separate entries in the source; they are usually repeats but may differ in a detail not shown here. Identical values can stand only once. Like-named read-outs stand apart in the source and are kept apart here.
# Tests used:
# [1] = tested on: P. vivax clinical field isolates; assay: microbe, parasite or virus in culture; assay type: cell-based; conditions: Plasmodium vivax, read-out: Median IC50
# [2] = tested on: P. falciparum lab lines FC27 and K1; assay: microbe, parasite or virus in culture; assay type: cell-based; conditions: Plasmodium falciparum, median of 3 independent experiments
# [3] = tested on: P. falciparum clinical field isolates; assay: microbe, parasite or virus in culture; assay type: cell-based; conditions: Plasmodium falciparum, read-out: Median IC50
# [4] = tested on: African variant G6PD deficient human red blood cells (huRBC); conditions: 7 days post-treatment; E209 up to 50 mg kg^−1 day^−1 for 3 days; PQ 25 mg/kg/day for 3 days
# [5] = Rat blood stability in vitro; conditions: male, Sprague Dawley, freshly collected whole blood
# P. falciparum 3D7 = assay: In vitro antimalarial activity, drug sensitivity testing (3D7); assay type: cell-based; conditions: Plasmodium falciparum
# [6] = In vitro intrinsic clearance, human liver microsomes (Chem Partners); assay type: in vitro ADME; conditions: human (H) liver microsomes
# [7] = Rat PK iv 1 mg/kg (Chem Partners); conditions: in vivo
# [8] = In vitro intrinsic clearance, rat liver microsomes (Chem Partners); assay type: in vitro ADME; conditions: rat (R) liver microsomes
# P. berghei [9] = tested on: P. berghei; design: species or system Plasmodium berghei
# [10] = tested on: P. falciparum strain 3D7A; design: method as in PMID 22383983; conditions: cited from earlier work
# [11] = Solubility at 37°C over a 6 hour incubation; assay type: physicochemical; conditions: free base equivalent
# [12] = Metabolic stability and metabolite profile in mouse liver microsomes; assay type: in vitro ADME; conditions: for Relative Peak Area (expressed as % total metabolite peak area generated over 60 minutes): metabolite of E209, mouse liver microsomes with NADPH; for Degradation half-life / In vitro CLint / Microsome-Predicted EH: mouse liver microsomes
# [13] = Metabolic stability and metabolite profile in rat liver microsomes; assay type: in vitro ADME; conditions: for Relative Peak Area (expressed as % total metabolite peak area generated over 60 minutes): metabolite of E209, rat liver microsomes with NADPH; for Degradation half-life / In vitro CLint / Microsome-Predicted EH: rat liver microsomes
# [14] = Metabolic stability and metabolite profile in human liver microsomes; conditions: for Relative Peak Area (expressed as % total metabolite peak area generated over 60 minutes): metabolite of E209, human liver microsomes with NADPH; for In vitro CLint / Microsome-Predicted EH / Degradation half-life: human liver microsomes
# [15] = Mammalian cell cytotoxicity; assay type: cell-based; conditions: human; HeLa cells, n=3; read-out: cytotoxicity median IC50
# [16] = tested on: P. falciparum strains (sensitive and resistant); assay: microbe, parasite or virus in culture; assay type: cell-based; conditions: Plasmodium falciparum, mean ± SD n=3
# P. berghei [17] = tested on: P. berghei; design: method as in Charman et al. 12; conditions: ref Charman et al. 12, cited from earlier work
# [18] = 10 × IC50, previous results on standard anti-malarials
compound,measurement,setting,value
"OC(c1cc(C(F)(F)F)nc2c(C(F)(F)F)cccc12)C1CCCCN1 (stereo not shown) [Mefloquine, mefloquine]",IC50,[1],18 nM
same,IC50,"[2]; K1, FC27 (CQ S) lab line",56.2 nM
same,IC50,[3],12.7 nM
"COc1cc(NC(C)CCCN)c2ncccc2c1 (stereo not shown) [primaquine, reference compound]",loss of huRBC,[4],induced significant loss of huRBC
FC1(F)CCN(CCOc2ccc(C3CCC4(CC3)OOC3(OO4)C4CC5CC(C4)CC3C5)cc2)CC1 (stereo not shown) [Compound 8],half-life at 1 µM,[5],16 h
same,IC50,P. falciparum 3D7,8.5 ± 0.6 nM
same,CLint scaled,[6],107 mL/min/kg
same,clearance,[7],1.3 mL/min/kg
same,half-life,[7],2.8 h
same,CLint scaled,[8],60 mL/min/kg
c1cc(C2CCC3(CC2)OOC2(OO3)C3CC4CC(C3)CC2C4)ccc1OCCCN1CCOCC1 (stereo not shown) [Compound 5],half-life at 1 µM,[5],15 h
same,IC50,P. falciparum 3D7,7.5 ± 0.2 nM
same,CLint scaled,[6],147 mL/min/kg
same,clearance,[7],6.5 mL/min/kg
same,half-life,[7],1.5 h
same,In vivo (Pb) MSD (days) at 1 x 30 mg/kg,P. berghei [9],16 days
same,CLint scaled,[8],75 mL/min/kg
"CCc1nc(N)nc(N)c1-c1ccc(Cl)cc1 [Pyrimethamine, pyrimethamine]",Lag phase,[10]; [18],24 h
same,Log PRR,[10]; [18],3.7
same,PCT 99.9 %,[10]; [18],57 h
same,Slope,[10]; [18],−0.077
CS(=O)(=O)O.c1cc(C2CCC3(CC2)OOC2(OO3)C3CC4CC(C3)CC2C4)ccc1CN1CCOCC1 (stereo not shown) [N205 mesylate],Solubility,"[11]; 0.01 N HCl, media pH 2.0, 37°C, 1 h",250 µg/mL
same,Solubility,"[11]; 0.01 N HCl, media pH 2.0, 37°C, 4 h",172 µg/mL
same,Solubility,"[11]; 0.01 N HCl, media pH 2.0, 37°C, 6 h",155 µg/mL
same,Solubility,"[11]; 0.1 N HCl, media pH 1.0, 37°C, 1 h",21.2 µg/mL
same,Solubility,"[11]; 0.1 N HCl, media pH 1.0, 37°C, 4 h",17.2 µg/mL
same,Solubility,"[11]; 0.1 N HCl, media pH 1.0, 37°C, 6 h",16.0 µg/mL
same,Solubility,"[11]; FaSSIF blank, 37°C, 1 h",< 0.1 µg/mL
same,Solubility,"[11]; FaSSIF blank, 37°C, 4 h",< 0.1 µg/mL
same,Solubility,"[11]; FaSSIF blank, 37°C, 6 h",< 0.1 µg/mL
same,Solubility,"[11]; FaSSIF, media pH 6.5, 37°C, 1 h",24.0 µg/mL
same,Solubility,"[11]; FaSSIF, media pH 6.5, 37°C, 4 h",18.1 µg/mL
same,Solubility,"[11]; FaSSIF, media pH 6.5, 37°C, 6 h",26.7 µg/mL
same,Solubility,"[11]; FeSSIF blank, 37°C, 1 h",2.3 µg/mL
same,Solubility,"[11]; FeSSIF blank, 37°C, 4 h",0.9 µg/mL
same,Solubility,"[11]; FeSSIF blank, 37°C, 6 h",1.2 µg/mL
same,Solubility,"[11]; FeSSIF, media pH 5.0, 37°C, 1 h",1089 µg/mL
same,Solubility,"[11]; FeSSIF, media pH 5.0, 37°C, 4 h",755 µg/mL
same,Solubility,"[11]; FeSSIF, media pH 5.0, 37°C, 6 h",783 µg/mL
same,Solubility,"[11]; Phosphate buffer, media pH 7.4, 37°C, 1 h",< 0.1 µg/mL
same,Solubility,"[11]; Phosphate buffer, media pH 7.4, 37°C, 4 h",< 0.1 µg/mL
same,Solubility,"[11]; Phosphate buffer, media pH 7.4, 37°C, 6 h",< 0.1 µg/mL
[O-][N+]1(CCOc2ccc(C3CCC4(CC3)OOC3(OO4)C4CC5CC(C4)CC3C5)cc2)CCC(F)CC1 (stereo not shown) [M+16 (IV)],Relative Peak Area (expressed as % total metabolite peak area generated over 60 minutes),[12],9%
same,Relative Peak Area (expressed as % total metabolite peak area generated over 60 minutes),[13],50%
same,Relative Peak Area (expressed as % total metabolite peak area generated over 60 minutes),[14],4%
CS(=O)(=O)N1CCN(CCCOc2ccc(C3CCC4(CC3)OOC3(OO4)C4CC5CC(C4)CC3C5)cc2)CC1 (stereo not shown) [Compound 7],half-life at 1 µM,[5],15 h
same,IC50,P. falciparum 3D7,3.7 ± 0.1 nM
same,CLint scaled,[6],238 mL/min/kg
same,clearance,[7],3.5 mL/min/kg
same,half-life,[7],3.2 h
same,In vivo (Pb) MSD (days) at 1 x 30 mg/kg,P. berghei [9],"14 (14, 14, 14) days"
same,CLint scaled,[8],29 mL/min/kg
"C[C@H]1[C@@H](O)O[C@@H]2O[C@@]3(C)CC[C@H]4[C@H](C)CC[C@@H]1[C@@]24OO3 [DHA, dihydroartemisinin, reference compound]",IC50,[15],400 nM
"Clc1ccc2c(N3CCN(CCCN4CCN(c5ccnc6cc(Cl)ccc56)CC4)CC3)ccnc2c1 [Piperaquine, piperaquine]",IC50,[1],33.8 nM
same,IC50,"[2]; K1, FC27 (CQ S) lab line",54.6 nM
same,IC50,"[2]; K1, K1 (CQ R) lab line",75.5 nM
same,IC50,[3],35.6 nM
c1cc(C2CCC3(CC2)OOC2(OO3)C3CC4CC(C3)CC2C4)ccc1CN1CCOCC1 (stereo not shown) [Compound N205],Degradation half-life,[12]; substrate 1 µM,0.8 h
same,In vitro CLint,[12]; substrate 1 µM,37 µL/min/mg protein
same,Microsome-Predicted EH,[12]; substrate 1 µM,0.44
same,Degradation half-life,[12]; substrate 5 µM,1.45 h
same,In vitro CLint,[12]; substrate 5 µM,20 µL/min/mg protein
same,Microsome-Predicted EH,[12]; substrate 5 µM,0.30
same,Degradation half-life,[13]; substrate 1 µM,0.25 h
same,In vitro CLint,[13]; substrate 1 µM,118 µL/min/mg protein
same,Microsome-Predicted EH,[13]; substrate 1 µM,0.75
same,Degradation half-life,[13]; substrate 5 µM,0.333 h
same,In vitro CLint,[13]; substrate 5 µM,89 µL/min/mg protein
same,Microsome-Predicted EH,[13]; substrate 5 µM,0.69
same,In vitro CLint,[14]; substrate 1 µM,51 µL/min/mg protein
same,Microsome-Predicted EH,[14]; substrate 1 µM,0.67
same,Degradation half-life,"[14]; substrate 1 µM, NADPH-dependent",0.567 h
same,Degradation half-life,[14]; substrate 5 µM,0.717 h
same,In vitro CLint,[14]; substrate 5 µM,41 µL/min/mg protein
same,Microsome-Predicted EH,[14]; substrate 5 µM,0.62
OC1CCC(c2ccc(OCCN3CCC(F)CC3)cc2)CC1 (stereo not shown) [Compound M-180],Relative Peak Area (expressed as % total metabolite peak area generated over 60 minutes),[12],20%
same,Relative Peak Area (expressed as % total metabolite peak area generated over 60 minutes),[13],9%
same,Relative Peak Area (expressed as % total metabolite peak area generated over 60 minutes),[14],10%
O=C1CCC(c2ccc(OCCN3CCC(F)CC3)cc2)CC1 [Compound M-182],Relative Peak Area (expressed as % total metabolite peak area generated over 60 minutes),[12],27%
same,Relative Peak Area (expressed as % total metabolite peak area generated over 60 minutes),[13],13%
same,Relative Peak Area (expressed as % total metabolite peak area generated over 60 minutes),[14],11%
"CCN(CC)Cc1cc(Nc2ccnc3cc(Cl)ccc23)ccc1O [Amodiaquine, amodiaquine]",IC50,[1],50.6 nM
same,IC50,"[2]; K1, FC27 (CQ S) lab line",33.1 nM
same,IC50,"[2]; K1, K1 (CQ R) lab line",39.3 nM
same,IC50,[3],25.6 nM
"CCN(CC)CCCC(C)Nc1ccnc2cc(Cl)ccc12 (stereo not shown) [Chloroquine, chloroquine]",IC50,[1],147 nM
same,IC50,"[2]; K1, K1 (CQ R) lab line",212 nM
same,IC50,"[16]; DD2, strain Dd2 (chloroquine resistant)",150 ± 25.7 nM
same,IC50,"[16]; HB3, strain HB3 (chloroquine sensitive)",9 ± 1.5 nM
same,IC50,"[16]; NF54, strain NF54 (chloroquine sensitive)",5.9 ± 1 nM
same,IC50,"[16]; TM90C2B, strain TM90C2B (chloroquine resistant)",121 ± 20.6 nM
same,IC50,[16]; strain 7G8 (chloroquine resistant),55 ± 9.4 nM
same,IC50,[16]; strain D6 (chloroquine sensitive),8.6 ± 1.5 nM
same,IC50,[16]; strain FCB (chloroquine resistant),66 ± 11.3 nM
same,IC50,[16]; strain K1 (chloroquine resistant),173 ± 29.5 nM
same,IC50,[16]; strain V1/S (chloroquine resistant),194 ± 33 nM
same,IC50,[3],85.5 nM
same,Lag phase,[10],0 h
same,PCT 99.9 %,[10],34 h
same,Slope,[10],−0.094
CS(=O)(=O)N1CCN(CCOc2ccc(C3CCC4(CC3)OOC3(OO4)C4CC5CC(C4)CC3C5)cc2)CC1 (stereo not shown) [Compound 6],half-life at 1 µM,[5],12 h
same,IC50,P. falciparum 3D7,3.5 ± 0.2 nM
same,CLint scaled,[6],257 mL/min/kg
same,clearance,[7],3.5 mL/min/kg
same,half-life,[7],3.2 h
same,In vivo (Pb) MSD (days) at 1 x 30 mg/kg,P. berghei [9],"19 days and 19.3 (14, 30,14) days"
same,CLint scaled,[8],38 mL/min/kg
c1cc([C@H]2CC[C@]3(CC2)OO[C@]2(O3)C3CC4CC(C3)CC2C4)ccc1OCCN1CCOCC1 [OZ439],IC50,P. falciparum 3D7,5.1 ± 0.81 nM
same,cures,"P. berghei [17]; animals cured of n=3, single oral dose 30 mg/kg",3
same,In vivo (Pb) MSD (days) at 1 x 30 mg/kg,"P. berghei [17]; single oral dose 30 mg kg^-1, P. berghei infected mice",30 days
"O=C1C(O)=C([C@H]2CC[C@H](c3ccc(Cl)cc3)CC2)C(=O)c2ccccc21 [Atovaquone, atovaquone]",Lag phase,[10]; [18],48 h
same,Log PRR,[10]; [18],2.9
same,PCT 99.9 %,[10]; [18],81 h
same,Slope,[10]; [18],−0.060
"C[C@@H]1CC[C@H]2[C@@H](C)C(=O)O[C@@H]3O[C@@]4(C)CC[C@@H]1[C@]32OO4 [Artemisinin, artemisinin]",Lag phase,[10],0 h
same,Log PRR,[10],> 4.8
same,PCT 99.9 %,[10],< 24 h
same,Slope,[10],−0.101
c1cc(C2CCC3(CC2)OOC2(OO3)C3CC4CC(C3)CC2C4)ccc1OCCN1CCOCC1 (stereo not shown) [Compound 4],half-life at 1 µM,[5],14 h
same,IC50,P. falciparum 3D7,10 ± 1 nM
same,CLint scaled,[6],135 mL/min/kg
same,clearance,[7],7.1 mL/min/kg
same,half-life,[7],1.1 h
same,CLint scaled,[8],86 mL/min/kg

# — publication PMC5458052 (Nature Communications, 2017)
